In test [1] the target is T1, Corticotropin-releasing factor receptor 2/Corticotropin-releasing factor-binding protein (Homo sapiens, UniProt P24387+Q13324).
T1 sequence (Q13324 whole entry): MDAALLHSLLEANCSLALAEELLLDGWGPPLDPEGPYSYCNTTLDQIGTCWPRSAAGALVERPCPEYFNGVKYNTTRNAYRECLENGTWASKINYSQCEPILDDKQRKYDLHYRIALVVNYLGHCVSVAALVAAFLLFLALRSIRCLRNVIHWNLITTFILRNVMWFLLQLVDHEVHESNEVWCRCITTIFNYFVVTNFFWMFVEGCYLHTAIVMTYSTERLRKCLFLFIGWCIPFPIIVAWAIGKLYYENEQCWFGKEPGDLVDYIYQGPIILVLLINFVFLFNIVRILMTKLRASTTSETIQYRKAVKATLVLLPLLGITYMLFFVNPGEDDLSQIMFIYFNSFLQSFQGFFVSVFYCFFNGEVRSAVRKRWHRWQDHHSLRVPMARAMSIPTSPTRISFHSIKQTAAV
T1 sequence (P24387 whole entry): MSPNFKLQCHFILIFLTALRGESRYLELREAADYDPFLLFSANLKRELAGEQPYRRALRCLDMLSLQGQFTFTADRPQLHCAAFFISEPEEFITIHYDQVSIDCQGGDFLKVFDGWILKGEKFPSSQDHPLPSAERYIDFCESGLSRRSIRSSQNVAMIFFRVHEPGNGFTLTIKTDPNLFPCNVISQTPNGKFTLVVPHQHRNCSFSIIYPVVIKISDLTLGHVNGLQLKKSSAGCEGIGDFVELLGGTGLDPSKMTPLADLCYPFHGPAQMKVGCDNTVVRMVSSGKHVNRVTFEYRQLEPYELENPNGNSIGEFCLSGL
The test is described as follows: Dose Response confirmation of uHTS hits for small molecule antagonists of the CRF-binding protein and CRF-R2 receptor complex. The format is functional. The settings on record: read-out: IC50_Mean.

The target in test [2] is T1, Corticotropin-releasing factor receptor 2/Corticotropin-releasing factor-binding protein. The test is described as follows: activators of CRF receptor 2 with binding protein – uHTS hits, confirmation (AID 602473). The format is functional. The settings on record: read-out: EC50_Mean.
For test [3], the target named is Beta-galactosidase (Escherichia coli, UniProt Q8VNN2). The test can be described thus: Dose response counterscreen for EBI2 assay utilizing the enzyme, b-galactosidase. The format is functional.
For test [4], the target named is Muscarinic acetylcholine receptor M5 (Homo sapiens, UniProt P08912). The test is described as follows: inhibition of ACh-evoked human M5 signalling – cell-based, CHO-K1 hM5, Fluo-4 calcium flux, ACh EC80, dose response (AID 743110). It counts as functional. In general terms: Calcium assays in cells follow changes in intracellular calcium, usually with a dye or a luminescent sensor.

Test [5] is described as follows: cells.
Test [6] addresses Major prion protein (Homo sapiens, UniProt P04156). It counts as functional, cell-based.
A short description of test [7]: cells. The conditions noted are these: A549.
Test [8] has as its target SUMO-activating enzyme (Homo sapiens, UniProt Q9UBT2). The test can be described thus: blockers of UBC9-mediated SUMO conjugation – biochemical, AlphaScreen, SUMOylation inhibitor project, confirmation (AID 2018). The format is functional. Background: In Alpha technology, singlet oxygen from a donor bead excites a nearby acceptor bead.
For test [9], the target named is Kallikrein-7 (Homo sapiens, UniProt P49862). The test is described as follows: Fluorescence Intensity-based biochemical primary high throughput dose response assay to identify activators of kallikrein-7 (K7) zymogen.
Test [10] in a line: Counterscreen for […] of the human trace amine associated receptor 1 (TAAR1): Fluorescence-based cell-based high throughput dose response assay to identify nonselective Ga16 agonists. The format is functional.
Test [11] is described as follows: Counterscreen for antagonists of the human trace amine associated receptor 1 (hTAAR1): Fluorescence-based cell-based high throughput dose response assay to identify nonselective Ga16 antagonists. It counts as functional.
The target of test [12] is T2, Trace amine-associated receptor 1 (Homo sapiens, UniProt Q96RJ0).
T2 sequence (Q96RJ0 whole entry): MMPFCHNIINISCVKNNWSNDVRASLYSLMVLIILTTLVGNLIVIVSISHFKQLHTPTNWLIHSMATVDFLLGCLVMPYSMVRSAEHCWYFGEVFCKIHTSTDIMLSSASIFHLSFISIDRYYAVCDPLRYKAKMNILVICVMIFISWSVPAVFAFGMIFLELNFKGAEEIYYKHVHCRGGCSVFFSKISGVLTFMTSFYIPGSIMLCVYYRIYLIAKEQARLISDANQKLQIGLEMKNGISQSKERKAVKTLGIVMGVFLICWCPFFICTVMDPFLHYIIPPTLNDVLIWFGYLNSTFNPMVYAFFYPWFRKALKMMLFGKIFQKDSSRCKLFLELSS
The test can be described thus: Fluorescence-based cell-based high throughput dose response assay to identify antagonists of the human trace amine associated receptor 1 (TAAR1). It counts as functional.

Test [13] has as its target T2, Trace amine-associated receptor 1. The test can be described thus: Counterscreen for antagonists of the human trace amine associated receptor 1 (hTAAR1): Fluorescence-based cell-based high throughput dose response assay to identify TAAR1 Agonists. The format is functional.
Test [14] is described as follows: A Cell-Based Confirmatory Screen for Compounds that Inhibit VEEV, TC-83 (8). The format is functional.
Test [15] can be described thus: CMV-driven luciferase expression suppression in HEK293 – cell-based, luminescence, dry powder, counter-screen for Pax8 inhibitor project, dose response (AID 743020). The format is functional. A general note: The purpose of a counterscreen is to sort out artefacts and off-target activity.
A short description of test [16]: OVCAR8 cell viability loss – plate reader, dry powder samples, PAX8 project, dose response (AID 743197). The format is functional, cell-based. The conditions noted are these: OVCAR-8.
The nature of test [17]: OVCAR-3 cell viability loss – plate reader, dry powder samples, PAX8 inhibitor project, dose response (AID 743044). It counts as functional, cell-based.
Test [18] can be described thus: toxicity toward immortalized ovarian surface epithelium – cell-based, plate reader, dry powder samples, cytotoxicity control for PAX8 inhibitor project, dose response (AID 743045). It counts as functional.
Test [19] concerns the target Paired box protein Pax-8 (Homo sapiens, UniProt Q06710). The test can be described thus: PAX8 transcriptional activity inhibition in RMG-I – RMG-I cells, luciferase, cherry-pick, dose response (AID 687027).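 Note: luciferase reporter driven by Pax8 target thyroperoxidase promoter measured by SteadyGlo luminescence.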 It counts as functional, cell-based.
Test [20] in a line: viability loss in HepG2 hepatoma cells – cell-based, ATP luminescence, cherry-pick, activator set 2, cytotoxicity control, dose response (AID 1053143). The format is functional.
Test [21] is described as follows: blockers of FN fibrillogenesis by fibroblasts – AH1F cells, Alexa488-FN fluorescence, cherry-picks, dose response (AID 1035475). It counts as functional, cell-based.
The nature of test [22]: viability loss in A549 lung cancer cells – cell-based, cherry-picks, […], cytotoxicity control, dose response (AID 1053119). The format is functional.
A short description of test [23]: viability loss in HEK293 kidney cells – cell-based, cherry-picks, set 5, cytotoxicity control, dose response (AID 1053117). It counts as functional.
In test [24] the target is Photoreceptor-specific nuclear receptor (Homo sapiens, UniProt Q9Y5X4). The format is functional, cell-based.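 Note: CHO-S cells with Gal4-NCOR and VP16-NR2E3 two-hybrid luciferase reporter.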
Test [25] has as its target Metabotropic glutamate receptor 3 (Rattus norvegicus, UniProt P31422). The test can be described thus: inhibitors of rat mGlu3 Galpha15 signaling – TREx293 cells, calcium flux, mGlu3 NAM project, dose response (AID 651840). It counts as functional.
Test [26] in a line: viability loss in A549 lung cancer cells – cell-based, CellTiter-Glo luminescence, dry powder, set 3, cytotoxicity control, dose response (AID 743146). It counts as functional.
Test [27] can be described thus: HEK293T viability loss – cell-based, ATP luminescence, dry powder, Set6, cytotoxicity control, dose response (AID 743142). The format is functional. The conditions noted are these: HEK293.
Test [28] has as its target COUP transcription factor 2 (Homo sapiens, UniProt P24468). The test can be described thus: Luminescence-based cell-based high throughput dose response assay to identify inhibitors of COUP-TFII (NR2F2). It counts as functional.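 Note: HEK293 cells transiently cotransfected with COUP-TFII expression vector and reporter; luciferase reporter luminescence driven by COUP-TFII from the pX2-168 reporter plasmid.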
The target of test [29] is Galanin receptor type 3 (Homo sapiens, UniProt O60755). The test is described as follows: Fluorescence-based cell-based primary high throughput dose response assay to identify antagonists of the Galanin Receptor 3 (GalR3). It counts as functional.
The nature of test [30]: cells. The settings on record: HEK-CNG. The format is functional, cell-based.
Test [31] deals with Metabotropic glutamate receptor 5 (Rattus norvegicus, UniProt P31424). The test can be described thus: Identification of a glycine sulfonamide based non-MPEP site positive allosteric potentiator (PAM) of mGlu5 (calcium_assay). The format is functional.
Test [32] deals with Streptococcus sp. 'group A'. The test is described as follows: Streptococcus pyogenes SK(-)GAS viability under kanamycin – luminescence, BacTiterGlo, confirmation, counter-screen for streptokinase expression inhibitor project, dose response (AID 1900). The format is functional, organism-based.
Test [33] has as its system Streptococcus. The test is described as follows: GAS UMAA2166 growth inhibition – luminescence, BacTiterGlo, counter-screen for streptokinase expression inhibitor project, dose response (AID 1915).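 Note: potency for reduction of bacterial viability or growth.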 It counts as functional, organism-based.
Test [34] is described as follows: cells. The conditions noted are these: HEK293.
For test [35], the target named is T3, Streptokinase A (Streptococcus pyogenes serotype M1, UniProt P10520).
T3 sequence (P10520 whole entry): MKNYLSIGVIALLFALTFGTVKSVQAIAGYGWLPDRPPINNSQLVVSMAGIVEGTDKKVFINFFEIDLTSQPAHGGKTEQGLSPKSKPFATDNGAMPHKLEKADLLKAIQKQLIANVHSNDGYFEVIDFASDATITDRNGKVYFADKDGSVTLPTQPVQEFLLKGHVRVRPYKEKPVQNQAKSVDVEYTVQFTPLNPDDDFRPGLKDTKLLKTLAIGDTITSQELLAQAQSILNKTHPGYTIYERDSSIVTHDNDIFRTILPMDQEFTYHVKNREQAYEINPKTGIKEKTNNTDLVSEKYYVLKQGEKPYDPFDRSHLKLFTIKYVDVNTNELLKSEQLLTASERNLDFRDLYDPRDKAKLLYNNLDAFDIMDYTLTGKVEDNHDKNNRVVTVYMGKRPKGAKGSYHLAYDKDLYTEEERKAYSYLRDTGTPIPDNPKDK
The test can be described thus: viability-normalized secreted streptokinase activity reduction – plasminogen activation absorbance, OD405, dose response (AID 1914).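 Note: secreted streptokinase activity via plasminogen activation per viability signal from cell pellet.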 It counts as functional, Streptococcus pyogenes M1 GAS.

Structures are written as SMILES. Calls of active or inactive are those of the source.

As to `CSc1ccc(/C=C/C(=O)N2CCN(c3ccccn3)CC2)cc1`, the IC50 in test [1] was > 47.1 µM (inactive); in test [3] it was > 80 µM (inactive). The EC50 in test [2] was > 53 µM (inactive).
Take `COC(=O)c1cccc(OCc2cc(C(=O)N(C)C(C)c3ccccn3)no2)c1` (stereo not given): in test [4], the IC50 is 11.1 µM (active).
For `O=C(O)CSc1ncnc2scc(-c3ccccc3)c12`, the values for the IC50 in test [5] and in test [6] were > 138 µM (inactive) and 5.04 µM (active), respectively.
As usually defined, the AC50 is the midpoint of the concentration-response curve, whichever way the signal moves. As to `Cn1cccc1/C=N/NC(=O)c1sc2cc(Cl)ccc2c1Cl`, the half-maximal activity concentration (AC50) in test [7] is 43.7 µM (active). Moreover, the IC50 in test [8] was > 100 µM (inactive).
Take `CN1CCSc2ccc(C(=O)NCc3cccc(F)c3)cc21`: in test [9], the EC50 is > 69.5 µM (inactive).
For `CCCC(=O)Nc1ccc(-c2csc(N/N=C\c3ccncc3)n2)cc1`, the EC50 in test [10] and in test [13] was > 29.9 µM (inactive) throughout. In addition, the results for the IC50 in test [11] and in [12] were > 29.9 µM (inactive) and 9.3 µM (active), respectively.
As for `CCN1CCN(C(c2nc3ncc([N+](=O)[O-])cc3c(=O)n2-c2ccccc2)C(c2nc3ncc([N+](=O)[O-])cc3c(=O)n2-c2ccccc2)N2CCN(CC)CC2)CC1` (stereo not given), in test [14], the IC50 is 6.57 µM (active).
Turning to `O=C(Nc1ccc(F)cc1)N1CC(=O)N2[C@@H](CO)[C@H](c3ccc(-c4ccc(F)cc4)cc3)[C@@H]2C1`, the concentration at half-maximal activity (AC50) is 34.5 µM (active) in test [15]; 25.6 µM (active) in [16]; 18.1 µM (active) in test [17]; 36.7 µM (active) in test [18]; 6.32 µM (active) in test [19].
Regarding `O=c1c2ccccc2oc2cc(-c3ccc(CN4CCOCC4)cc3)ccc12`, in test [20], the AC50 is 26 µM (active).
For the compound `CN1CCN(C(=O)c2cccc(-c3cnc4cnc(-c5ccccc5Oc5ccccc5)cn34)c2)CC1`, the AC50 is 5.86 µM (active) in test [21], > 52 µM (inactive) in test [22] and 47.8 µM (active) in [23]. Moreover, in test [24], the IC50 was 1.72 µM (active).
Take `COc1ccc(C#Cc2ccc(C(=O)N3CCCC(=O)C3)cc2)cc1`: the IC50 in [25] came out at 2.71 µM.
For `Cc1ccc(C(=O)NCCC(=O)N[C@@H]2CCCc3ccccc32)cc1`, the AC50 in test [26] was > 52 µM (inactive); in test [27], 6.22 µM (active).
As for `OC[C@@H]1CN(Cc2ccc(-c3ccccc3)cc2)C[C@H](n2cnc3c(NC4CCCC4)ncnc32)O1`, the IC50 is 6.28 µM (active) in test [28] and 0.349 µM (active) in test [29]. Moreover, the EC50 in test [30] was > 29.9 µM (inactive).
In the case of `CC(C(=O)Nc1ccncc1)N(c1ccccc1Cl)S(C)(=O)=O` (stereo not given), the EC50 in test [31] was > 30 µM (inactive).
Consider `CC(C)(C)[C@H]1CCC(=O)N([C@H](CSc2ccccc2)Cc2ccccc2)CC1`, for which the EC50 was 7.1 µM (active) in [32], 10.3 µM (active) in [33] and 23.2 µM (active) in test [35]. Further, the AC50 in [34] is > 52 µM (inactive).

These data come from ChEMBL document CHEMBL1201862, “PubChem BioAssay data set” (2004).
